# Test results as given in ChEMBL document CHEMBL2029263, “New myrsinol diterpenes from Euphorbia prolifera and their inhibitory activities on LPS-induced NO production” (Bioorg Med Chem Lett, 2012).
# pIC50: −log10 of the molar value.
# What was measured:
# BV-2 [1] = assay: Inhibition of LPS-induced NO production in mouse BV2 cells after 20 hrs by Griess assay; format: functional, cell-based; conditions: BV-2, 20 h
# BV-2 [2] = assay: Cytotoxicity against mouse BV2 cells at effective concentration after 20 hrs by MTT assay; format: cell-based; conditions: bv-2, 20 h
Compound,pIC50 (BV-2 [1]),Activity (BV-2 [2])
C=C(C)[C@H]1C=C[C@@H](OC(=O)c2cccnc2)[C@@]23CO[C@@](C)([C@H](OC(=O)c4cccnc4)[C@@]4(OC(C)=O)C[C@H](C)[C@H](OC(=O)CC)[C@@H]4[C@H]2OC(C)=O)[C@H]13,4.10,Non-toxic
CCC(=O)O[C@@H]1[C@@H]2[C@@H](OC(C)=O)[C@@]34CO[C@@](C)([C@H](OC(=O)c5cccnc5)[C@@]2(OC(C)=O)C[C@@H]1C)[C@@H]3[C@@H]1[C@@H](C[C@]1(C)OC(C)=O)[C@@H](OC(=O)c1ccccc1)C4=O [EUPHORBIALOID H],4.19,Non-toxic
CC(=O)O[C@@H]1[C@@H]2[C@@H](OC(=O)c3ccccc3)[C@@]3(COC(=O)c4cccnc4)[C@@H]([C@@H]4[C@H](C[C@H]3OC(C)=O)C4(C)C)[C@](C)(O)C(=O)[C@@]2(O)C[C@@H]1C [EUPHORBIALOID B],4.81,Non-toxic
CCC(=O)O[C@@H]1[C@@H]2[C@@H](OC(C)=O)[C@@]34CO[C@@](C)([C@H](OC(=O)c5cccnc5)[C@@]2(OC(C)=O)C[C@@H]1C)[C@@H]3[C@@H](C(C)(C)OC(C)=O)C=CC4=O [EUPHORBIALOID F],4.44,Non-toxic
C=C(C)[C@H]1C=C[C@@H](OC(=O)c2ccccc2)[C@@]23CO[C@@](C)([C@H](OC(=O)c4cccnc4)[C@@]4(OC(C)=O)C[C@H](C)[C@H](OC(=O)CC)[C@@H]4[C@H]2OC(C)=O)[C@H]13,4.13,Non-toxic
CCC(=O)O[C@@H]1[C@@H]2[C@@H](OC(C)=O)[C@@]34CO[C@@](C)([C@H](OC(C)=O)[C@@]2(O)C[C@@H]1C)[C@@H]3[C@@H]1[C@@H](C[C@]1(C)OC(C)=O)[C@@H](OC(=O)c1cccnc1)C4=O [EUPHORBIALOID G],4.31,Non-toxic
CCC(=O)O[C@@H]1[C@@H]2[C@@H](OC(=O)c3ccccc3)[C@@]3(COC(=O)c4cccnc4)[C@@H]([C@@H]4[C@H](C[C@H]3OC(C)=O)C4(C)C)[C@](C)(OC(C)=O)C(=O)[C@@]2(O)C[C@@H]1C [EUPHORBIALOID C],4.53,Non-toxic
CC(=O)O[C@@H]1[C@H]2[C@@H](OC(=O)c3cccnc3)[C@](C)(OC(=O)C(C)C)C[C@]2(OC(C)=O)[C@H](OC(=O)c2ccccc2)[C@]2(C)OC[C@]13[C@H](OC(C)=O)C=C[C@H](C(C)(C)OC(C)=O)[C@@H]23 [EUPHORBIALOID J],4.36,Non-toxic
CCC(=O)O[C@@H]1[C@@H]2[C@@H](OC(C)=O)[C@@]34CO[C@@](C)([C@@H](OC(=O)c5ccccc5)[C@@]2(OC(C)=O)C[C@@]1(C)OC(=O)c1cccnc1)[C@@H]3[C@@H](C(C)(C)OC(C)=O)C=C[C@H]4OC(C)=O [EUPHORBIALOID I],4.38,Non-toxic
CCC(=O)O[C@@H]1[C@@H]2[C@@H](OC(=O)c3ccccc3)[C@@]3(COC(=O)c4cccnc4)[C@@H]([C@@H]4[C@H](C[C@H]3OC(C)=O)C4(C)C)[C@](C)(O)C(=O)[C@@]2(O)C[C@@H]1C [EUPHORBIALOID A],4.71,Non-toxic
CCCC(=O)O[C@@H]1[C@@H]2[C@@H](OC(=O)c3ccccc3)[C@@]3(COC(=O)c4cccnc4)[C@@H]([C@@H]4[C@H](C[C@H]3OC(C)=O)C4(C)C)[C@](C)(OC(C)=O)C(=O)[C@@]2(O)C[C@@H]1C [EUPHORBIALOID D],4.45,Non-toxic
CC(=O)O[C@@H]1[C@H]2[C@@H](OC(=O)c3cccnc3)[C@@H](C)C[C@]2(OC(C)=O)[C@@H](OC(C)=O)[C@]2(C)OC[C@]13C(=O)C=C[C@H](C(C)(C)OC(C)=O)[C@@H]23 [EUPHORBIALOID E],4.47,Non-toxic
CSC(=N)N,4.88,
